The values below come from ChEMBL document CHEMBL1148912, “New diterpenoids from the marine mangrove Bruguiera gymnorrhiza” (J Nat Prod, 2004).

In brackets after ≈: the same amount, converted by molar mass.

What is called GI50 is the concentration that inhibits growth by half. Lower therefore signals greater sensitivity of the cells. A word on the CC50: it is the concentration that lowers cell viability or growth by half. Lower therefore signals greater toxicity to the cells.

The nature of data set [1]: Growth inhibition of mouse L929 cells. The class given is cell-based.
Another data set relates to K562. Description: Growth inhibition of human K562 cells. The class given is functional.
The test system of the next data set is HeLa. Description: Cytotoxicity against human HeLa cells. The class given is functional.

Take `C[C@@]12CCC[C@@](C)(C=O)[C@H]1CC[C@]13C[C@](O)(CC[C@H]12)[C@](O)(CCl)C3`: the results for the GI50 (in data set [1]; with K562) were 50 µg/mL (≈ 141 µM) and 29.2 µg/mL (≈ 82.3 µM), respectively. This compound gave a CC50 with HeLa of 38.2 µg/mL (≈ 108 µM).

For `C[C@@]12CCC[C@@](C)(C(=O)O)[C@H]1CC[C@@]13C[C@H](CO)[C@@H](CC[C@H]12)C3`, the figures for the GI50 (in data set [1]; in the data set on K562) were 42.4 µg/mL (≈ 132 µM) and 32.8 µg/mL (≈ 102 µM), respectively. Moreover, in the data set with HeLa, the CC50 was determined as 43 µg/mL (≈ 134 µM).

Turning to `C[C@@]1(CO)CCC[C@]2(C)[C@@H]1CC[C@@]13C[C@H](CO)[C@@H](CC[C@H]12)C3`, the GI50 in data set [1] is 12.8 µg/mL (≈ 41.8 µM); with K562 it was 13.6 µg/mL (≈ 44.4 µM). The compound further registered a CC50 with HeLa of 35.7 µg/mL (≈ 116 µM).

In the case of `COC(=O)[C@]1(C)CCC[C@@]2(C)[C@@H]3CC[C@H]4C[C@]3(CC[C@@H]21)C[C@]4(O)CO`, the GI50 is 39.5 µg/mL (≈ 113 µM) in data set [1] and 27.7 µg/mL (≈ 79 µM) in the data set with K562. In addition, the CC50 in the data set on HeLa is 40.5 µg/mL (≈ 116 µM).

As for `COC(=O)[C@]1(C)CCC[C@@]2(C)C3=CC[C@H]4C[C@]3(CC[C@H]12)C[C@]4(O)CO`, the GI50 in data set [1] worked out at 41.9 µg/mL (≈ 120 µM); in the data set with K562, 26.7 µg/mL (≈ 76.6 µM). Half-maximal cytotoxicity in the data set with HeLa (CC50) was put at 38.7 µg/mL (≈ 111 µM).

As for `C[C@@]12CCC[C@@](C)(C=O)[C@H]1CC[C@@]13CC(=O)[C@](CO)(CC[C@H]12)C3`, the figures for the GI50 (in data set [1]; in the data set with K562) were 45.4 µg/mL (≈ 143 µM) and 50 µg/mL (≈ 157 µM), respectively. For the same compound, in the data set on HeLa, it took 37.7 µg/mL (≈ 118 µM) to reach half-maximal cytotoxicity (CC50).

Take `C=C1C[C@]23CC[C@@H]4[C@](C)(CO)CCC[C@@]4(C)[C@@H]2CC[C@@]1(O)C3`: the GI50 (in data set [1]; with K562) was 50 µg/mL (≈ 164 µM) each time. Also, the CC50 in the data set with HeLa was found to be 50 µg/mL (≈ 164 µM).

`C[C@@]12CCC[C@@](C)(C=O)[C@H]1CC[C@@]13C[C@@H](CC[C@H]12)[C@@](O)(CO)C3`: the GI50 (in data set [1]; with K562) was 50 µg/mL (≈ 156 µM) throughout. Also, half-maximal cytotoxicity with HeLa (CC50) was put at 50 µg/mL (≈ 156 µM).

As for `C=C1C[C@@]23CC[C@@H]4[C@](C)(CO)CCC[C@@]4(C)[C@@H]2CC[C@H]1C3`, the figures for the GI50 (in data set [1]; with K562) were 18.2 µg/mL (≈ 63.1 µM) and 6.8 µg/mL (≈ 23.6 µM), respectively. The midpoint of cytotoxicity in the data set on HeLa, the CC50, lay at 32.8 µg/mL (≈ 114 µM).

On to `C=C1C[C@]23CC[C@H]4[C@@](C)(CCC[C@@]4(C)C=O)[C@@H]2CC[C@@]1(O)C3`, for which the GI50 in data set [1] turned out to be 11.5 µg/mL (≈ 38 µM); in the data set with K562, 10.5 µg/mL (≈ 34.7 µM). The compound further yielded a CC50 in the data set with HeLa of 42.3 µg/mL (≈ 140 µM).

Turning to `CC(=O)O[C@H]1C(=O)[C@@]2(C)[C@H]([C@H](OC(=O)c3ccccc3)[C@]3(O)C[C@H](OC(=O)[C@H](O)[C@@H](NC(=O)c4ccccc4)c4ccccc4)C(C)=C1C3(C)C)[C@]1(OC(C)=O)CO[C@@H]1C[C@@H]2O` [PACLITAXEL], the GI50 was 0.1 µg/mL (≈ 0.117 µM) in data set [1] and 0.01 µg/mL (≈ 0.0117 µM) with K562. In addition, the midpoint of cytotoxicity with HeLa, the CC50, lay at 0.01 µg/mL (≈ 0.0117 µM).
